Results taken from US12209071B2, “Triazine derivatives for treating diseases relating to neurotrophins” (AlzeCure Pharma AB, priority 2018, dated 2025).

Key:
TrkC = biological target: T1, TrkC (Homo sapiens, UniProt Q16288); experiment: Enzyme Fragment Complementation cell-based assay, TrkC; settings: U2OS-cells over-expressing TrkC; ligand 10 ng/mL; 3 hours incubation
T1 construct: expressed in transfected cells; host or cells: U2OS
Source text: (§1) A high throughput cell-based screen has been used to identify positive modulators of TrkA, TrkB and TrkC. The screen involves the use of cell-based assay overexpressing TrkA, TrkB or TrkC. The purpose of the assay is to identify compounds that modulate neurotrophin signalling (Forsell et al 2012). The assay can be used in inhibitor mode using a high concentration of ligand, in modulator mode using an intermediate concentration and in agonist mode using a low concentration of ligand.
(§2) The assay uses Enzyme Fragment Complementation (EFC) technique, which is a proximity-based assay. Briefly, cells used in this assay over-express two fusion proteins, i.e. the receptor, which can be either one of TrkA, TrkB, TrkC, IGF1R or FGFR1, fused to a small peptide of beta-galactosidase and an adaptor protein, i.e. SHC1 (or any other Trk-adaptor protein) fused to the major part of beta-galactosidase. […] The proximity between the small activating peptide on the receptor and the major part of beta-galactosidase on the adaptor protein leads to an active beta-galactosidase enzyme. The activation of the receptor is quantified by measuring the amount of active beta-galactosidase by its conversion of a non-luminescent substrate into a luminescent product.
(§3) U2OS-cells, over-expressing TrkA or TrkB or TrkC, are plated in 96- or 384-well plates and incubated overnight. Alternatively, cryopreserved HEK293-cells expressing IGFR1 or cryopreserved U2OS-cells expressing FGFR1 were plated in 96- or 384-well plates. On the following day, test compound was pre-mixed with ligand (NGF, BDNF, NT-3, IGF-1 or basic fibroblast growth factor (bFGF(FGF-2))) and the ligand-compound mixture is then added to the cells to yield a final ligand concentration of 10 ng/mL. After 3 hours of incubation at room temperature, the incubation is stopped by the addition of a beta-galactosidase substrate mixture containing detergents. The substrate mixture is incubated for 60 minutes at ambient temperature. The luminescence is thereafter read by the use of a plate reader.

FGFR1 = biological target: T2, FGFR1 (Homo sapiens, UniProt P11362); experiment: Enzyme Fragment Complementation cell-based assay, FGFR1; settings: cryopreserved U2OS-cells expressing FGFR1; ligand 10 ng/mL; 3 hours incubation
T2 construct: expressed in transfected cells; host or cells: U2OS (cryopreserved)
Source text: as §1, §2, §3

TrkB = biological target: T3, TrkB (Homo sapiens, UniProt Q16620); experiment: Enzyme Fragment Complementation cell-based assay, TrkB; settings: U2OS-cells over-expressing TrkB; ligand 10 ng/mL; 3 hours incubation
T3 construct: expressed in transfected cells; host or cells: U2OS
Source text: as §1, §2, §3

TrkA = biological target: T4, TrkA (Homo sapiens, UniProt P04629); experiment: Enzyme Fragment Complementation cell-based assay, TrkA; settings: U2OS-cells over-expressing TrkA; ligand 10 ng/mL; 3 hours incubation
T4 construct: expressed in transfected cells; host or cells: U2OS
Source text: as §1, §2, §3

IGF1R = biological target: T5, IGF1R (Homo sapiens, UniProt P08069); experiment: Enzyme Fragment Complementation cell-based assay, IGF1R; settings: cryopreserved HEK293-cells expressing IGFR1; ligand 10 ng/mL; 3 hours incubation
T5 construct: expressed in transfected cells; host or cells: HEK293 (cryopreserved)
Source text: as §1, §2, §3

[1] = system: mice treated with scopolamine; experiment: Passive avoidance task; assay type: in vivo; settings: C57/Bl6 mice; s.c. once per day for 4 days prior to PA training; scopolamine 0.3 mg/kg s.c. 30 min prior to training; FIG. 1
Experimental: Passive avoidance (PA) is an aversive learning task based on classical (Pavlovian) fear conditioning that allows for analysis of both facilitation and impairment of memory function by adjusting the unconditioned stimulus, i.e. the electrical foot shock. Commonly a cognitive-impairing agent is administered to the animals to mimic the neurochemical disturbances present in various cognitive disorders e.g. cholinergic (scopolamine) and glutamatergic (MK-801) deficits.
Prior to testing, the animals are brought to the experimental room where they are allowed to habituate for 60 min. The test is conducted using a modified shuttle box with two communicating compartments of equal size with a small sliding door built into the separating wall and a stainless-steel bar floor. One of the compartments is not illuminated and thus black whereas the other compartment (the light one) is illuminated by an electric bulb, installed on the top of a plexiglass cover. The PA training is conducted in a single session. […] Latency to cross over into the dark compartment (training latency) is recorded. […] The latency to cross over into the dark compartment with all four feet is measured (retention latency) as well as time in bright compartment and a number of other relevant parameters (e.g. number of visits in the dark compartment). […]

[2] = system: ephrin type-B receptor 2 (EphB2); settings: Suzuki et al., FEBS Open Bio 2016; cited from earlier work

T4 sequence (P04629 33-796): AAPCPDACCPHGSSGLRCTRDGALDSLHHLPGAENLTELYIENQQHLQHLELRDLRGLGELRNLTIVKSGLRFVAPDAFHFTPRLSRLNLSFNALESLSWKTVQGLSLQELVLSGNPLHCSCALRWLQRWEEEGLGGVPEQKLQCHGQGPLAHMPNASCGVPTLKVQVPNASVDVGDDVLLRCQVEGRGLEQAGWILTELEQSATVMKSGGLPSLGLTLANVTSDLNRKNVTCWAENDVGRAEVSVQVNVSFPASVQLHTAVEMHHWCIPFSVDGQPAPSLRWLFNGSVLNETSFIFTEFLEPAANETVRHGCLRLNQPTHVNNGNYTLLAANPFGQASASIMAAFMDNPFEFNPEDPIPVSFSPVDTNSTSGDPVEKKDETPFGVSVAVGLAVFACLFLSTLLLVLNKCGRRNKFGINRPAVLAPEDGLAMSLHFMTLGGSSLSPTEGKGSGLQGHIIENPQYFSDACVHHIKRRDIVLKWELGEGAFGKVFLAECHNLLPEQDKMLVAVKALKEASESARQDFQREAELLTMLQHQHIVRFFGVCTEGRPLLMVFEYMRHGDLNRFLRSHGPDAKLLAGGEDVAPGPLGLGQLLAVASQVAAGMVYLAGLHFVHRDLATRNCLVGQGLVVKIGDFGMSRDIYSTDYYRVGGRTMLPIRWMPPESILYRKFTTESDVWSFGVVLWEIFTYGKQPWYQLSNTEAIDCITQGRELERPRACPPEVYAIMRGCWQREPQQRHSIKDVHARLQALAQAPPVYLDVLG
T1 sequence (Q16288 32-839): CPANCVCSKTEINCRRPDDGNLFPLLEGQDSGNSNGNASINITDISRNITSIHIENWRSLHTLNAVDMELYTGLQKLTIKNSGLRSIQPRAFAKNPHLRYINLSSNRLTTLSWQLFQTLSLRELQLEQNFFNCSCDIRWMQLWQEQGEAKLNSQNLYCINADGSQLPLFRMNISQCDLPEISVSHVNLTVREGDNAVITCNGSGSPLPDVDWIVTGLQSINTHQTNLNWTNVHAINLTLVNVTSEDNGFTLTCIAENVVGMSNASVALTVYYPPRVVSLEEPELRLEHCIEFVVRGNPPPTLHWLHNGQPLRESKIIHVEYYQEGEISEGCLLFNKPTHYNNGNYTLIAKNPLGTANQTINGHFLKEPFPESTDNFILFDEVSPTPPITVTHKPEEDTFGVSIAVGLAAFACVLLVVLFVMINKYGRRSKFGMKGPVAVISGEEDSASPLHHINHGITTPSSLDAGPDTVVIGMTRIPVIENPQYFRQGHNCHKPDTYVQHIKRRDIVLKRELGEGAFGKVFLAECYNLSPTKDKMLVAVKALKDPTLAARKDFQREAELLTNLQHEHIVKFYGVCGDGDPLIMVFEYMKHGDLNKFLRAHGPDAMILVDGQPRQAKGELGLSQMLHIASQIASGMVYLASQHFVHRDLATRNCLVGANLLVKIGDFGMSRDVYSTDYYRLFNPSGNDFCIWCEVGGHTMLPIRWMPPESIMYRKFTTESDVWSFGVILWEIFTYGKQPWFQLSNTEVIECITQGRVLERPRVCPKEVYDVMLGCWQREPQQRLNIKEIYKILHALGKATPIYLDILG
T5 sequence (P08069 31-736 limits assumed): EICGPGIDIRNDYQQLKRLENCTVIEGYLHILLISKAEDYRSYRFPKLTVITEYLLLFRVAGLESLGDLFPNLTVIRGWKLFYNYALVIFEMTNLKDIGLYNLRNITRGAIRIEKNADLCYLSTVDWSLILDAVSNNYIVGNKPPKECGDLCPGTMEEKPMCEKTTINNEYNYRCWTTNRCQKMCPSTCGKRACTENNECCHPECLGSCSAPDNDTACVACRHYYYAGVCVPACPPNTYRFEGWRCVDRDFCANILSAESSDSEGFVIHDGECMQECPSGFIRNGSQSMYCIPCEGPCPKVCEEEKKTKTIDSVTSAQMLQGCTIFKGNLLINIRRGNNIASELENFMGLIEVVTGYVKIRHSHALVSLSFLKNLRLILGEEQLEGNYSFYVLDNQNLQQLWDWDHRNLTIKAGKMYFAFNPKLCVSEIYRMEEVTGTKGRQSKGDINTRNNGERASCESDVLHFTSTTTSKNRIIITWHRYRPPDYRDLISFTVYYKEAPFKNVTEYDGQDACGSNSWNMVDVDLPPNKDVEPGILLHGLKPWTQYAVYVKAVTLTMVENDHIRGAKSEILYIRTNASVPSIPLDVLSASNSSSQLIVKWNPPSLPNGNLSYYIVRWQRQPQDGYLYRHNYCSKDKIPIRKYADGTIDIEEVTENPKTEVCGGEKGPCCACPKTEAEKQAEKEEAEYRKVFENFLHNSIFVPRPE
T5 sequence (P08069 741-1367 limits assumed): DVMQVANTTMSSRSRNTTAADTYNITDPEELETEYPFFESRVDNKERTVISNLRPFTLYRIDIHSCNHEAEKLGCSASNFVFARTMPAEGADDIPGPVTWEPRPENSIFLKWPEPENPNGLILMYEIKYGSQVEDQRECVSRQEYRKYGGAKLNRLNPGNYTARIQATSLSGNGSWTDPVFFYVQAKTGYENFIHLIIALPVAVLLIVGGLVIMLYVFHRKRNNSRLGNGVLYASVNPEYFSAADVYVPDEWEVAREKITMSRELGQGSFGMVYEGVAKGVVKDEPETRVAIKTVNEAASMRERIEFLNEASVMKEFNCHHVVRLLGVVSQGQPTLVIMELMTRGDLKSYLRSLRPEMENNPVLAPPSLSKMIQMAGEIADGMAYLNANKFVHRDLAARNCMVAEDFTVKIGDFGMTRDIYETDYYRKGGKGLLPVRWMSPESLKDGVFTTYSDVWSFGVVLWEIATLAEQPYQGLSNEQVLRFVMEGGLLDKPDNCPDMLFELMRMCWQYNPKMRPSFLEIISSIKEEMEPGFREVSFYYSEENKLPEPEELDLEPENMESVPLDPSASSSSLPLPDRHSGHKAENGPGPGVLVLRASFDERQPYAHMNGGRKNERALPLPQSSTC
T2 sequence (P11362 22-822): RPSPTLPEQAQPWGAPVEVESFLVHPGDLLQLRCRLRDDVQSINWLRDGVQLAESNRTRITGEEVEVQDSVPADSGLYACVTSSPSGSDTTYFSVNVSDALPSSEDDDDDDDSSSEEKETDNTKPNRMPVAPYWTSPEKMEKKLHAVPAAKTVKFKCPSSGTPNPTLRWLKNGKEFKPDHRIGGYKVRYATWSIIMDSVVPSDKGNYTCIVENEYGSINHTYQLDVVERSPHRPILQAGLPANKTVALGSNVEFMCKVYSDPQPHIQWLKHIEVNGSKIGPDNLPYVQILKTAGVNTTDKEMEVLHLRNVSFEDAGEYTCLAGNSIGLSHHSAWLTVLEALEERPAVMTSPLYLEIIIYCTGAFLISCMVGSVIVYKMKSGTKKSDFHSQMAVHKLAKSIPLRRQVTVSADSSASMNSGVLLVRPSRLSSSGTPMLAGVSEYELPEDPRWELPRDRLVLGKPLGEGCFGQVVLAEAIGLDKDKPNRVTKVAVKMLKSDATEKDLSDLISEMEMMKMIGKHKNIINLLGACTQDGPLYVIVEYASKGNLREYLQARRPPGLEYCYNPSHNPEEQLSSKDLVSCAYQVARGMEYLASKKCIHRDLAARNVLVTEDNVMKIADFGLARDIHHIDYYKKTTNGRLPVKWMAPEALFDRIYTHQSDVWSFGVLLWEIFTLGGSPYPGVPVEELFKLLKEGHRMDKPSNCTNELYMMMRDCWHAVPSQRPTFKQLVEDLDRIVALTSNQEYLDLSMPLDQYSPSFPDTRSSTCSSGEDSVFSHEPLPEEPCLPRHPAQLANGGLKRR
T3 sequence (Q16620 32-822): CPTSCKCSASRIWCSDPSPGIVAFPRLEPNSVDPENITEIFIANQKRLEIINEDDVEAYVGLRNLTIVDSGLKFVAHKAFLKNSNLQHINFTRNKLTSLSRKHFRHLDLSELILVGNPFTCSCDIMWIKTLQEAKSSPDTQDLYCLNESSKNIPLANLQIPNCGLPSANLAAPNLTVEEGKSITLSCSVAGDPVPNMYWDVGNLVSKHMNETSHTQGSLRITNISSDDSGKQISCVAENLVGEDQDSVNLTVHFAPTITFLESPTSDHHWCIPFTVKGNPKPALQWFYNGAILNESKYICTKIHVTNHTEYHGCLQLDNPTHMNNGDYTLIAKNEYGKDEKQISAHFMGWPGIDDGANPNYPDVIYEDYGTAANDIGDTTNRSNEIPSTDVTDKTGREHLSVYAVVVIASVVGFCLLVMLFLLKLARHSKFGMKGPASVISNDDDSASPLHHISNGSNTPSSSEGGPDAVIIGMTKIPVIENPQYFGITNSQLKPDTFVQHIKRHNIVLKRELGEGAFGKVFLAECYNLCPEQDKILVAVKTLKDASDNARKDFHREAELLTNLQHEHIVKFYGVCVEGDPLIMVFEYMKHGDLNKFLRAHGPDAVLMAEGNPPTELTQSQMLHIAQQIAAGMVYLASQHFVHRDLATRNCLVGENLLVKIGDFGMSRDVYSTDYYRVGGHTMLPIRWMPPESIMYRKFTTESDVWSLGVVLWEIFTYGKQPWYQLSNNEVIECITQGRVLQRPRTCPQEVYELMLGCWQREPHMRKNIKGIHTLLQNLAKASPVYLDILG

Structure (SMILES)	EC50 (TrkC)	EC50 (FGFR1)	EC50 (TrkB)	EC50 (TrkA)	EC50 (IGF1R)	retention latency within the bright area (cognitive function) [1]	inhibition of binding of β-amyloid oligomers to EphB2 [2]
O=c1[nH]c(=O)n(-c2ccc(Oc3ccccc3)cc2)c(=O)n1-c1ccccc1 [Example 1, 1-(4-phenoxyphenyl)-3-phenyl-1,3,5-triazinane-2,4,6-trione]	1400 nM	890 nM	1400 nM	1300 nM	1800 nM	–	–
Cc1cc(-n2c(=O)[nH]c(=O)n(-c3ccccc3)c2=O)ccc1Oc1ccccc1 [Example 5, 1-(3-methyl-4-phenoxyphenyl)-3-phenyl-1,3,5-triazinane-2,4,6-trione]	–	290 nM	390 nM	340 nM	250 nM	increased retention latency	–
COc1cc(Oc2ccccc2)ccc1-n1c(=O)[nH]c(=O)n(-c2ccccc2)c1=O [Example 9, 1-(2-methoxy-4-phenoxyphenyl)-3-phenyl-1,3,5-triazinane-2,4,6-trione]	–	170 nM	270 nM	230 nM	270 nM	–	–
O=c1[nH]c(=O)n(-c2ccc(N3CCOCC3)cc2)c(=O)n1-c1ccc(Oc2ccccc2)cc1 [Example 10, 1-[4-(morpholin-4-yl)phenyl]-3-(4-phenoxyphenyl)-1,3,5-triazinane-2,4,6-trione]	–	2800 nM	2200 nM	1100 nM	–	–	–
COc1cc(-n2c(=O)[nH]c(=O)n(-c3ccccc3)c2=O)ccc1Oc1ccccc1 [Example 11, 1-(3-methoxy-4-phenoxyphenyl)-3-phenyl-1,3,5-triazinane-2,4,6-trione]	–	340 nM	450 nM	320 nM	220 nM	–	–
N#Cc1cc(-n2c(=O)[nH]c(=O)n(-c3ccccc3)c2=O)ccc1Oc1ccccc1 [Example 12, 2-phenoxy-5-(2,4,6-trioxo-3-phenyl-1,3,5-triazinan-1-yl)benzonitrile]	–	4700 nM	2400 nM	5900 nM	–	–	–
COCCOc1cc(-n2c(=O)[nH]c(=O)n(-c3cccc(Cl)c3)c2=O)ccc1Oc1ccccc1 [Example 58, 1-(3-chlorophenyl)-3-[3-(2-methoxyethoxy)-4-phenoxyphenyl]-1,3,5-triazinane-2,4,6-trione]	180 nM	–	230 nM	220 nM	–	–	–
Cn1c(=O)[nH]c(=O)n(-c2ccc(Oc3ccc(Cl)cc3)cc2)c1=O [Example 64, 1-[4-(4-chlorophenoxy)phenyl]-3-methyl-1,3,5-triazinane-2,4,6-trione]	9600 nM	–	5900 nM	4400 nM	–	–	–
Cn1c(=O)[nH]c(=O)n(-c2ccc(Oc3ccccc3)c(Cl)c2)c1=O [Example 65, 1-(3-chloro-4-phenoxyphenyl)-3-methyl-1,3,5-triazinane-2,4,6-trione]	320 nM	–	1600 nM	4500 nM	–	–	–
Cc1cc(-n2c(=O)[nH]c(=O)n(-c3cnn(-c4ccccc4)c3)c2=O)ccc1Oc1ccccc1 [Example 68, 1-(3-methyl-4-phenoxyphenyl)-3-(1-phenyl-1H-pyrazol-4-yl)-1,3,5-triazinane-2,4,6-trione]	1100 nM	–	360 nM	230 nM	–	–	–
Cc1cc(-n2c(=O)[nH]c(=O)n(C)c2=O)ccc1Oc1ccc(SC(F)(F)F)cc1 [toltrazuril, 1-methyl-3-(3-methyl-4-{4-[(trifluoromethyl)sulfanyl]phenoxy}phenyl)-1,3,5-triazinane-2,4,6-trione]	–	–	–	–	–	–	30%

Further lines, with some results ahead:

EC50 (TrkC)	EC50 (FGFR1)	EC50 (TrkB)	EC50 (TrkA)	EC50 (IGF1R)	Structure (SMILES)	retention latency within the bright area (cognitive function) [1]	inhibition of binding of β-amyloid oligomers to EphB2 [2]
–	580 nM	950 nM	830 nM	840 nM	COc1cccc(-n2c(=O)[nH]c(=O)n(-c3ccc(Oc4ccccc4)cc3)c2=O)c1 [Example 4, 1-(3-methoxyphenyl)-3-(4-phenoxyphenyl)-1,3,5-triazinane-2,4,6-trione]	–	–
–	–	–	4400 nM	4400 nM	O=c1[nH]c(=O)n(-c2ccc(OCc3ccccc3)cc2)c(=O)n1-c1ccccc1 [Example 6, 1-[4-(benzyloxy)phenyl]-3-phenyl-1,3,5-triazinane-2,4,6-trione]	–	–
–	–	–	3900 nM	2600 nM	O=c1[nH]c(=O)n(-c2ccc(Oc3ccc(Cl)cc3)cc2)c(=O)n1-c1ccccc1 [Example 7, 1-[4-(4-chlorophenoxy)phenyl]-3-phenyl-1,3,5-triazinane-2,4,6-trione]	–	–
–	–	–	1600 nM	2200 nM	N#Cc1ccc(Oc2ccc(-n3c(=O)[nH]c(=O)n(-c4ccccc4)c3=O)cc2)cc1 [Example 8, 4-[4-(2,4,6-trioxo-3-phenyl-1,3,5-triazinan-1-yl)phenoxy]benzonitrile]	–	–
90 nM	–	120 nM	180 nM	–	COCCOc1cc(-n2c(=O)[nH]c(=O)n(-c3cccc(C)c3)c2=O)ccc1Oc1ccccc1 [Example 57, 1-[3-(2-methoxyethoxy)-4-phenoxyphenyl]-3-(3-methylphenyl)-1,3,5-triazinane-2,4,6-trione]	–	–
330 nM	–	460 nM	480 nM	–	COCCOc1cc(-n2c(=O)[nH]c(=O)n(-c3ccc(Cl)cc3)c2=O)ccc1Oc1ccccc1 [Example 59, 1-(4-chlorophenyl)-3-[3-(2-methoxyethoxy)-4-phenoxyphenyl]-1,3,5-triazinane-2,4,6-trione]	–	–
190 nM	–	250 nM	220 nM	–	O=c1[nH]c(=O)n(-c2ccc(Oc3ccccc3)c(Br)c2)c(=O)n1-c1ccccc1 [Example 69, 1-(3-bromo-4-phenoxyphenyl)-3-phenyl-1,3,5-triazinane-2,4,6-trione]	–	–
